In data set [1] the target is Mitogen-activated protein kinase 3 (Homo sapiens) (UniProt P27361). Nature of the data set: Inhibition of N-terminal FLAG-tagged ERK1 (unknown origin) expressed in baculovirus expression system at 100 nM using myelin basic protein as substrate preincubated for 5 mins followed by [gamma-33P]ATP addition and measured after 60 mins by topcount scintillation counting method relative to control.

A short description of data set [2]: Drug level in Jcl-ICR mouse plasma at 100 mg/kg, ip measured at 2 hr by LC/MS/MS analysis. It counts as ADME, organism-based.
The nature of data set [3]: Brain to plasma partition coefficient, Kp of the compound in Jcl-ICR mouse at 100 mg/kg, ip measured at 0.5 hrs by LC/MS/MS analysis. It counts as ADME, organism-based.
In data set [4] the target is Insulin receptor (Homo sapiens) (UniProt P06213). Nature of the data set: Inhibition of IRK (unknown origin) at 100 nM by [gamma-33P]ATP-based radiometric or Alphascreen assay relative to control.
Insulin receptor (Homo sapiens), sequence (P06213 28-758 limits assumed): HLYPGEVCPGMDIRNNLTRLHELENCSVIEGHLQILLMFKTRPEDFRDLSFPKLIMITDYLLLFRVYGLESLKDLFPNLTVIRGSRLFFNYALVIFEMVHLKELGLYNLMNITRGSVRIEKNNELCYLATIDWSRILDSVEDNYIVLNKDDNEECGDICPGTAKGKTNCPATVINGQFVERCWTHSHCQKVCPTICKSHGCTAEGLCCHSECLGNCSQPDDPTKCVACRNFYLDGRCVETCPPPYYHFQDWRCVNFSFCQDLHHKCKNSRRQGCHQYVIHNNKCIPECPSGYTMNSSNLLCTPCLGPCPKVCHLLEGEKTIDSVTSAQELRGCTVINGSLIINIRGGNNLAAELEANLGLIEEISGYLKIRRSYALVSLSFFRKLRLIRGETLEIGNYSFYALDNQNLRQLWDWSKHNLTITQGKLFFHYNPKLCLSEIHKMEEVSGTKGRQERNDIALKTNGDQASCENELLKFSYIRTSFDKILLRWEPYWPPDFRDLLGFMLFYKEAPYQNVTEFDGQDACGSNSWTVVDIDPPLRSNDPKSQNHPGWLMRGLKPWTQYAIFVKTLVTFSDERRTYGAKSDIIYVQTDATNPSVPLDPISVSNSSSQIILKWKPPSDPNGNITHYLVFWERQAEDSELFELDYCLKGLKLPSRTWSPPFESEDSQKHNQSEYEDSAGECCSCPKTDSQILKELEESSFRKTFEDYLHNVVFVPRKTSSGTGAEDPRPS
Insulin receptor (Homo sapiens), sequence (P06213 763-1382 limits assumed): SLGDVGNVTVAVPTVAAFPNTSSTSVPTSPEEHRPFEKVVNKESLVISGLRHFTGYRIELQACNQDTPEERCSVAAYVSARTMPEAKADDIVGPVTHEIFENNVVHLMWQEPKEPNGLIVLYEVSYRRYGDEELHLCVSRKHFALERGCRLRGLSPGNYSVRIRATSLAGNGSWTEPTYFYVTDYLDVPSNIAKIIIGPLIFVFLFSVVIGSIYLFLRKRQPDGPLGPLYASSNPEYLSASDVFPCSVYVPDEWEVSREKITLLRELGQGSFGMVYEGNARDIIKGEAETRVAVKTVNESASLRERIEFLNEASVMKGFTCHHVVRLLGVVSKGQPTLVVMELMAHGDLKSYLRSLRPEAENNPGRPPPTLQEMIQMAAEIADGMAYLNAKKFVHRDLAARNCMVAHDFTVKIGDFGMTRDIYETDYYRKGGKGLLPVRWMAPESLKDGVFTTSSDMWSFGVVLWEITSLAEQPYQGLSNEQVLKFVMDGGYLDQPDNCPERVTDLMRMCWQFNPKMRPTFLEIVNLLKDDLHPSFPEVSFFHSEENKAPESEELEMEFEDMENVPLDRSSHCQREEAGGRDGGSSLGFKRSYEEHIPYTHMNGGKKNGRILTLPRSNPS
Data set [5] has as its target Rho-associated protein kinase 1 (Homo sapiens) (UniProt Q13464). As to the kind of experiment: Inhibition of ROCK1 (unknown origin) at 100 nM by [gamma-33P]ATP-based radiometric or Alphascreen assay relative to control. (In general: Alpha assays give light when donor and acceptor beads are brought close together.)
A short description of data set [6]: Drug level in Jcl-ICR mouse brain at 100 mg/kg, ip measured at 2 hr by LC/MS/MS analysis. The class given is ADME, organism-based. Particulars: read-out: Drug uptake.
Data set [7] is described as follows: Drug level in Jcl-ICR mouse plasma at 100 mg/kg, ip measured at 0.5 hrs by LC/MS/MS analysis. It counts as ADME, organism-based.
Data set [8] in a line: Unbound brain-to-plasma concentration ratio in Jcl-ICR mouse at 100 mg/kg, ip measured at 2 hrs by LC/MS/MS analysis. Particulars: read-out: K(p,uu,brain). It counts as ADME, organism-based.
In data set [9] the target is Casein kinase I isoform delta (Homo sapiens) (UniProt P48730). Nature of the data set: Inhibition of CK1delta (unknown origin) at 100 nM by [gamma-33P]ATP-based radiometric or Alphascreen assay relative to control.
Casein kinase I isoform delta (Homo sapiens), sequence (P48730 whole entry, looked up, canonical isoform): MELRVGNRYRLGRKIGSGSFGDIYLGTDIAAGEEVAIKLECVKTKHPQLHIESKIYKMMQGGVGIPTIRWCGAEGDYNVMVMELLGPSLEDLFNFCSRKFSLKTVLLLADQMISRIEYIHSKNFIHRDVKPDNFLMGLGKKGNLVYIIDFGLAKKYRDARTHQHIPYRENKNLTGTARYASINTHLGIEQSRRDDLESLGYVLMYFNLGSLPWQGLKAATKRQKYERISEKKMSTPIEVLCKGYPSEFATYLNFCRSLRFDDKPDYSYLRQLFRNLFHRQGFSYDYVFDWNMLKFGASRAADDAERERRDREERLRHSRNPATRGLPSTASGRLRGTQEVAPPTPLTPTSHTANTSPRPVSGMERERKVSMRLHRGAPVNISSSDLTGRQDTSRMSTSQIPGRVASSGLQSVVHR
Data set [10] deals with Glycogen synthase kinase-3 beta (Homo sapiens) (UniProt P49841). Nature of the data set: Inhibition of N-terminal FLAG-tagged GSK3beta (unknown origin) expressed in baculovirus expression system at 100 nM using pGS peptide as substrate preincubated for 5 mins followed by [gamma-33P]ATP addition and measured after 30 mins by topcount scintillation counting method relative to control.
Glycogen synthase kinase-3 beta (Homo sapiens), sequence (P49841 whole entry, looked up): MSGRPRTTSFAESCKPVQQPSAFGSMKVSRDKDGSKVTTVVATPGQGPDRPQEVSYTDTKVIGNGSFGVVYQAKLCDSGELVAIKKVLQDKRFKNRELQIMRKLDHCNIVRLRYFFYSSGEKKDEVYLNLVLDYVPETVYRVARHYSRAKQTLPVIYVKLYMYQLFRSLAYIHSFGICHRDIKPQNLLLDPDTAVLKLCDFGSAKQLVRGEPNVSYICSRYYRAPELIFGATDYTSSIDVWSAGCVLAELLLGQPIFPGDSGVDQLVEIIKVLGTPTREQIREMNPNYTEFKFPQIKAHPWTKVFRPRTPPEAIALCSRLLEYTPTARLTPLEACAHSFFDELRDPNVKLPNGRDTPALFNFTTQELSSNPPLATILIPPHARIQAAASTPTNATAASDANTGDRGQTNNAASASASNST

For another data set, the species on record is Homo sapiens. Nature of the data set: Selectivity ratio of IC50 for human FAK kinase domain (411 to 686 residues) expressed in baculovirus expression system to IC50 for human ALK kinase domain (1058 to 1620 residues) expressed in baculovirus expression system.
The target in data set [11] is Tyrosine-protein kinase JAK1 (Homo sapiens) (UniProt P23458). Nature of the data set: Inhibition of JAK1 (unknown origin) at 100 nM by [gamma-33P]ATP-based radiometric or Alphascreen assay relative to control.
Tyrosine-protein kinase JAK1 (Homo sapiens), sequence (P23458 whole entry): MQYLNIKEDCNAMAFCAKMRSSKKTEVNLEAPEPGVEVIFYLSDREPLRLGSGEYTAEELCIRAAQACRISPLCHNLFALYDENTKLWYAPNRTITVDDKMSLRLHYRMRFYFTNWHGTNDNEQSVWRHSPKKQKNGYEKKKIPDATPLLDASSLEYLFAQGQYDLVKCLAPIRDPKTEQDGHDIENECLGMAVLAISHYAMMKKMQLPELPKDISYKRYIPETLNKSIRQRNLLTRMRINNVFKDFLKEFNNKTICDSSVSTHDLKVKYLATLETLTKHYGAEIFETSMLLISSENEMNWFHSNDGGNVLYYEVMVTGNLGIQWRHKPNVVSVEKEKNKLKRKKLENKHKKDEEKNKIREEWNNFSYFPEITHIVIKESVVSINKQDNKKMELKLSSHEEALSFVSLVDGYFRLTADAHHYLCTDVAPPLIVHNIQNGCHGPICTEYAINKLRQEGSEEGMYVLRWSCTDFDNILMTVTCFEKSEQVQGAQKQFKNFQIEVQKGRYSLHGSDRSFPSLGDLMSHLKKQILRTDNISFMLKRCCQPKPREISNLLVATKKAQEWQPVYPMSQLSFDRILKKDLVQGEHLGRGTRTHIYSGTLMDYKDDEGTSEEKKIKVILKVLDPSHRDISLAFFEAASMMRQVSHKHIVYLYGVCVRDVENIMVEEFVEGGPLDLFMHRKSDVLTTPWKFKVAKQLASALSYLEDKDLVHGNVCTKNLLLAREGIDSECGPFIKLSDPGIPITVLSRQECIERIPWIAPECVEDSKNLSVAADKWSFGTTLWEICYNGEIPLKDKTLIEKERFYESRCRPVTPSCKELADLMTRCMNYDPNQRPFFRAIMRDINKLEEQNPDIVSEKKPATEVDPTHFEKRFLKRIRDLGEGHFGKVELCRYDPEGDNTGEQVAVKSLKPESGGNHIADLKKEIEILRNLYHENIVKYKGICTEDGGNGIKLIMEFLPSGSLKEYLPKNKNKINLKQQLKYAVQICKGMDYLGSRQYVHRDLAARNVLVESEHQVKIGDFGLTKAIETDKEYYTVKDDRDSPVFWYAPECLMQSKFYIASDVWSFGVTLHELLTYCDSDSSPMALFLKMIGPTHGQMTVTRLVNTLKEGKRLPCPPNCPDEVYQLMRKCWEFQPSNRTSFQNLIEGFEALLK
The nature of data set [12]: Fraction unbound in ICR mouse plasma at 1 umol/L measured for 20 hrs by equilibrium dialysis based LC-MS/MS analysis. It counts as ADME, cell-free. Particulars: 1 µM.
Data set [13] in a line: Unbound brain-to-plasma concentration ratio in Jcl-ICR mouse at 100 mg/kg, ip measured at 1 hr by LC/MS/MS analysis. The class given is ADME, organism-based. Particulars: read-out: K(p,uu,brain).
The target of data set [14] is cAMP-dependent protein kinase catalytic subunit alpha (Homo sapiens) (UniProt P17612). As to the kind of experiment: Inhibition of PKA (unknown origin) expressed in Escherichia coli at 100 nM using PKA substrate peptide preincubated for 5 mins followed by [gamma-33P]ATP addition and measured after 10 mins by topcount scintillation counting method relative to control.

For data set [15], the target named is MAP kinase-activated protein kinase 2 (Homo sapiens) (UniProt P49137). Nature of the data set: Inhibition of MAPKAPK2 (unknown origin) at 100 nM by [gamma-33P]ATP-based radiometric or Alphascreen assay relative to control.
MAP kinase-activated protein kinase 2 (Homo sapiens), sequence (P49137 whole entry, looked up): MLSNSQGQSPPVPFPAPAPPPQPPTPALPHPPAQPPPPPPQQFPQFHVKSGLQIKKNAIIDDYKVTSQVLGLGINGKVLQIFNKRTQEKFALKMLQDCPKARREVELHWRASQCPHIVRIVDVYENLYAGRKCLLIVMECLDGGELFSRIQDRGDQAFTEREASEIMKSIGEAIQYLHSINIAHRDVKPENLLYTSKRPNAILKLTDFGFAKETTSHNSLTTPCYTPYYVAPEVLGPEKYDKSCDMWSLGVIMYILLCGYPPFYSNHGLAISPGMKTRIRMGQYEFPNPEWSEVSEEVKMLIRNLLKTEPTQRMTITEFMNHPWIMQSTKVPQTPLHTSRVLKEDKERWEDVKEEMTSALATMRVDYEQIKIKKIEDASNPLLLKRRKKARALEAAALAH
For data set [16], the target named is Aurora kinase B (Homo sapiens) (UniProt Q96GD4). Nature of the data set: Inhibition of N-terminal His6-tagged AuroraB (unknown origin) expressed in baculovirus expression system at 100 nM using aurora peptide as substrate preincubated for 5 mins followed by [gamma-33P]ATP addition and measured after 60 mins by topcount scintillation counting method relative to control.
Aurora kinase B (Homo sapiens), sequence (Q96GD4 whole entry): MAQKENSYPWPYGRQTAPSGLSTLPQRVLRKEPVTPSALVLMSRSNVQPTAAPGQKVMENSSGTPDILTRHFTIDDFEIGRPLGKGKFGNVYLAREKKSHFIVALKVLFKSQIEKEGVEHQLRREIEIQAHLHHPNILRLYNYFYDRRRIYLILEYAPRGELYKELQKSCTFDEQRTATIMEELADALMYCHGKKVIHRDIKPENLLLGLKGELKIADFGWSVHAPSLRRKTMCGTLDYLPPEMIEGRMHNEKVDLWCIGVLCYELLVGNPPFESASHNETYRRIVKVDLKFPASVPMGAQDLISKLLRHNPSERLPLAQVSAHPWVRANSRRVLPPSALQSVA

The target in data set [17] is Proto-oncogene tyrosine-protein kinase Src (Homo sapiens) (UniProt P12931). Nature of the data set: Inhibition of recombinant human full-length N-terminal His6-tagged SRC expressed in Sf21 insect cells at 100 nM preincubated for 5 mins followed by ATP addition and measured after 10 mins by alphascreen assay relative to control.
Data set [18] addresses Serine/threonine-protein kinase PLK1 (Homo sapiens) (UniProt P53350). Nature of the data set: Inhibition of N-terminal FLAG-tagged PLK1 (unknown origin) expressed in baculovirus expression system at 100 nM using alpha-casein as substrate preincubated for 5 mins followed by [gamma-33P]ATP addition and measured after 40 mins by topcount scintillation counting method relative to control.

Data set [19] can be described thus: Drug level in Jcl-ICR mouse brain at 100 mg/kg, ip measured at 0.5 hrs by LC/MS/MS analysis. It counts as ADME, organism-based. Particulars: read-out: Drug uptake.

Structures are written as SMILES.

Serine/threonine-protein kinase PLK1 (Homo sapiens), sequence (P53350 whole entry): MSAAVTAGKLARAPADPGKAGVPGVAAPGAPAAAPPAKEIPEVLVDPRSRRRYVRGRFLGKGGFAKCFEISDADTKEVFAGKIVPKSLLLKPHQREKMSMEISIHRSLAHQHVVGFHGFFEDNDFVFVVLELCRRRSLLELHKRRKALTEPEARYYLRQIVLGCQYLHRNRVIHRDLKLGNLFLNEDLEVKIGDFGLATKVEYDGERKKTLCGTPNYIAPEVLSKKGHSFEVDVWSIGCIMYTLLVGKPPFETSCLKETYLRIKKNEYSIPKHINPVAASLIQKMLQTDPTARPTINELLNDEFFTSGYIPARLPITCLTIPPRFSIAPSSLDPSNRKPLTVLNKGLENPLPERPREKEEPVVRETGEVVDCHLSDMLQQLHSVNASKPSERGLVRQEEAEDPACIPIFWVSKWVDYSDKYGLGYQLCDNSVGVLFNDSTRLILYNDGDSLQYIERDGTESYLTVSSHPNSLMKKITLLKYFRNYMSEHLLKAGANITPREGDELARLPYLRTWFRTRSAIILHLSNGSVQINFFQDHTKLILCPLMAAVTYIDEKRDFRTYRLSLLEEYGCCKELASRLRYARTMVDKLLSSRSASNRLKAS

`Cc1cc(-n2cc(C(=O)N3CCO[C@@H](C)C3)c3ccc(O[C@@H](C)c4ccc(F)cn4)nc32)n[nH]1`: the inhibition is 3% in data set [1]; 2% in data set [4]; -5% in [5]; 6% in data set [9]; 3% in data set [10]; -8% in data set [11]. Also, the inhibition in data set [14] is 12%; in [15], 3%; in data set [16], 21%; in data set [17], -2%; in data set [18], 5%. In addition, the figures for the concentration at 2 h in data set [2] and in [6] were 11600 ng/mL and 10300 ng/mL, respectively. Further, in [3], the Kp at 0.5 h stood at 1.26. For the same molecule, the concentration at 0.5 h in data set [7] came to 26200 ng/mL; in [19] it was 33000 ng/mL. The Kp uu at 2 h in [8] came out at 0.11. The Ratio IC50 in the data set filed under Homo sapiens came to 10. Besides, the Fu in data set [12] amounted to 0.08%. Also, the Kp uu at 1 h in data set [13] amounted to 0.27.

One may read the inhibition as the change of the read-out against control, counted positive when it falls. As usually defined, the Kp is the ratio of the level in a tissue or fluid to that in plasma or blood.

(Values after ChEMBL document CHEMBL4396868, “Discovery of Potent, Selective, and Brain-Penetrant 1 H-Pyrazol-5-yl-1 H-pyrrolo[2,3- b]pyridines as Anaplastic Lymphoma Kinase (ALK) Inhibitors” (J Med Chem, 2019).)
